Reference: patent US20260035339A1, “TETRAHYDRONAPHTHALENE DERIVATIVE” (ATRANSEN PHARMA LTD., priority 2022, published 2026)

What was measured:
Assay type in all cases: cell-based
[1] = test system: Mouse colorectal cancer-derived CT26 cells; assay: Cell proliferation inhibitory effect using mouse colorectal cancer cells (CCK-8 assay); details: 72 hours compound treatment, read-out: Evaluation of IC50 (proliferation inhibition rate of 50%)
Method: Mouse colorectal cancer-derived CT26 cells were adjusted to […], seeded in a 96-well plate at 1000 cells/well, and cultured in a 10% fetal bovine serum-added RPMI 1640 medium at 5% CO2 and 37° C. The culture medium was changed 24 hours after the start of the culture, and the medium containing the compound of Example was replaced to examine the action of the compound on cell proliferation. As the compound, a concentration of 0.01, 0.03, 0.1, 0.3, 1, 3, 10, or 30 μM was used. As a control, the cells were cultured in a medium containing no compound. The number of cells was evaluated by CCK-8 assay (Cell Counting Kit-8, DOJINDO LABORATORIES) 72 hours after the start of the compound treatment, and the compound concentration (IC50 value) giving a proliferation inhibition rate of 50% as compared with the control was calculated.

human LAT1 [2] = molecular target: T1, human LAT1 (Homo sapiens, UniProt Q01650); assay: Leucine uptake persistence inhibitory effect after compound removal in human-LAT1 highly expressing cell line; details: 20 μM compound for 30 minutes, removed, uptake measured 30 minutes later
T1 sequence (Q01650 whole entry): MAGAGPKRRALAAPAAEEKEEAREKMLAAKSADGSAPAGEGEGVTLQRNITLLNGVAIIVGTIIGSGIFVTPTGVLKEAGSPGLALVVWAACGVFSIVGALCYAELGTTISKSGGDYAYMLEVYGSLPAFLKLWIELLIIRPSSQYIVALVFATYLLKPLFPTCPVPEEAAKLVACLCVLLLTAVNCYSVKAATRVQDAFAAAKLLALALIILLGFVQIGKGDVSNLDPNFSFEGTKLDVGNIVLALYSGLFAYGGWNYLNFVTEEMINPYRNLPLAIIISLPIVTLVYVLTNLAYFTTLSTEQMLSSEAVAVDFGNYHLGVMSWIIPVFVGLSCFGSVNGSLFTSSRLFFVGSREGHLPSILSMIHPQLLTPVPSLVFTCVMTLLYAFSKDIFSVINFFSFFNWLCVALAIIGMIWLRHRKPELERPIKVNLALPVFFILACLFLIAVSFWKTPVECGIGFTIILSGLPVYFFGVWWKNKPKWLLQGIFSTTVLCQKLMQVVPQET
T1 sequence (P08195 102-630 partner): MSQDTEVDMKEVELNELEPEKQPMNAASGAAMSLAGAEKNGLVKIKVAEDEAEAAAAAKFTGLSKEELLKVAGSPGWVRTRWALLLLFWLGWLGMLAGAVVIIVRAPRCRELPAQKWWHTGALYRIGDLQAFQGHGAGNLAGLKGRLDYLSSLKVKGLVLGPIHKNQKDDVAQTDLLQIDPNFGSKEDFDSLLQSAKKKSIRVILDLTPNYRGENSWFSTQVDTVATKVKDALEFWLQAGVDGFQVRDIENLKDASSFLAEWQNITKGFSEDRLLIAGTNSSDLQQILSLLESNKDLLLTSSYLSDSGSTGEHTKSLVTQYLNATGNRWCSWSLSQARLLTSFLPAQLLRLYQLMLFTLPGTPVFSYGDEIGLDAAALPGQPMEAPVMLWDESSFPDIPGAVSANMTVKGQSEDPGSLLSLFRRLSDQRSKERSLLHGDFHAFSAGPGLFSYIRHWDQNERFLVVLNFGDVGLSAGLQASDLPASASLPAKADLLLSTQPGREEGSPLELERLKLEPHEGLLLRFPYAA
Method: The uptake of [^14C]L-leucine remaining after the compound of the present invention was caused to act in advance and removed in the human-LAT1 highly expressing cell line was examined. In the same manner as in the uptake inhibition test, the cell line was seeded in a 24-well plate, and an MEM (Minimum Essential Medium) medium containing 20 μM of the compound (racemic form) was added to the wells and allowed to act for 30 minutes. An MEM medium containing no compound was used as a control. After the compound was caused to act, the cells were washed 3 times with the MEM medium and cultured in the MEM medium for an additional 30 minutes. Thereafter, washing was performed 3 times with Na^+Free-HBSS, and 1 μM of [^14C]L-leucine dissolved in Na^+Free-HBSS was taken up for 1 minute. The cells were washed 3 times with ice-cooled Na^+Free-HBSS, and the amount of [^14C]L-leucine taken up in the cells was determined with a liquid scintillator. In the same manner as in other tests, the amount of protein in the cell fluid was measured, and the uptake amount of [^14C]L-leucine per 1 mg of protein in the cell fluid per minute was determined.

human LAT1 [3] = molecular target: T1, human LAT1; assay: [14C]L-leucine uptake inhibition test using human-LAT1 stably expressing HEK293 cell line; parameters: having full-length cDNA of human LAT1 or LAT2 inserted under a promoter of CMV; expressed in transfected cells; key to Assay Data: degree of [14C]L-leucine uptake inhibition compared with BCH: a test compound having a higher inhibitory effect than BCH is denoted by A; a test compound having the same inhibitory effect as BCH is denoted by B; a test compound having a lower inhibitory effect than BCH is denoted by C; details: for Assay Data: degree of [14C]L-leucine uptake inhibition compared with BCH: compound (racemic form) and BCH at 0.1, 1.0, 10 μM, 1 μM [14C]L-leucine, 1 minute, Na+-free HBSS; for LAT1 inhibitory effect, compounds singled out (in words): same test as Table 1
Source text: HEK293 cells stably expressing human LAT1 and LAT2 were produced, respectively.
A shuttle vector DNA (LAT1: pcDNA3.1(+) -hLAT1, LAT2: pcDNA3.1(+) -hLAT2; expression vector pcDNA3.1 (+) was produced by Invitrogen Corp.) having ampicillin and neomycin resistance markers and having full-length cDNA of human LAT1 or LAT2 inserted under a promoter of CMV (cytomegalovirus) was constructed. This vector was transfected into the HEK293 cells by a method using Lipofectamine (registered trademark) 2000 (Invitrogen Corp.) according to the manufacturer's instructions. Thereafter, stably expressing cell clones of transgene were selected by a limiting dilution method in the presence of 0.9 mg/mL of Geneticin (registered trademark), and among the obtained cell clones, cell clones having a high uptake of [^14C]L-leucine and maintaining stable expression even after 10 passages were obtained. These cells were used for evaluating affinity and selectivity for LAT1 and LAT2.
1-1. It has been confirmed that LAT1 is responsible for L-leucine uptake in the absence of sodium ions in the human-LAT1 stably expressing HEK293 cell line. The human-LAT1 stably expressing HEK293 cell line was seeded in a 24-well plate at 1×10^5 Cell/Well, and the [^14C]L-leucine uptake inhibition test using the compound was performed after 48 hours. After the medium was removed and the cells were washed with Hank's balanced salt solution (Na^+-free HBSS) not containing sodium ions, the cells were cultured in Na^+-free HBSS for 10 minutes. Thereafter, 1 μM of [^14C]L-leucine was taken up in Na^+-free HBSS in the presence of a test compound (0.1, 1.0, 10, 0 μM in each case), which is a racemic form, for 1 minute, and then the cells were washed three times with ice-cooled Na^+-free HBSS. To the well, 500 μL of 1 M NaOH was added, and after 30 minutes, the cells were lysed, and the cell lysate was collected. The amount of [^14C]L-leucine in the cell lysate was determined using a liquid scintillator. The amount of protein in the cell lysate was measured using BCA Assay Kit (Thermofisher Scientific), and the uptake amount of [^14C]L-leucine per 1 mg of protein in the cell per minute was calculated.
The degree of LAT1 inhibition of the compound obtained in the present invention was compared with BCH (BCH, 2-aminobicyclo-(2,2,1)-heptane-2-carboxylic acid), which is an existing LAT1 inhibitor. In the [^14C]L-leucine uptake inhibition test described above, the degrees of inhibition of [^14C]L-leucine uptake inhibition using the compound (racemic form) obtained in Examples and BCH (0.1, 1.0, 10, 0 μM for both) were compared. […] In the table, a test compound having a higher inhibitory effect than BCH is denoted by A, a test compound having the same inhibitory effect as BCH is denoted by B, and a test compound having a lower inhibitory effect than BCH is denoted by C.

Row | SMILES | IC50 [1] [nM] | sustained LAT1 inhibitory effect as compared with Example 1-1 (human LAT1 [2]) | Assay Data: degree of [14C]L-leucine uptake inhibition compared with BCH (human LAT1 [3]) | LAT1 inhibitory effect, compounds singled out (in words) (human LAT1 [3])
1 | Cl.NC1(C(=O)O)CCc2ccc(Oc3ccccc3-c3cccc(Cl)c3)cc2C1 (stereo not shown) [Example 1-33, 2-carboxy-7-((3′-chloro-[1,1′-biphenyl]-2-yl)oxy)-1,2,3,4-tetrahydronaphthalene-2-aminium chloride] | ≤ 900 | more remarkable effect | A | 
2 | Cc1cccc2cccc(Oc3ccc4c(c3)CC(N)(C(=O)O)CC4)c12.Cl (stereo not shown) [Example 1-46, 2-carboxy-7-((8-methylnaphthalen-1-yl)oxy)-1,2,3,4-tetrahydronaphthalene-2-aminium chloride] | ≤ 900 | more remarkable effect | A | particularly remarkable effects
3 | Cl.NC1(C(=O)O)CCc2ccc(Oc3ccccc3-c3ccc(F)c(Cl)c3)cc2C1 (stereo not shown) [Example 1-48, 2-carboxy-7-((3′-Chloro-4′-fluoro-[1,1′-biphenyl]-2-yl)oxy)-1,2,3,4-tetrahydronaphthalene-2-aminium chloride] | ≤ 900 | more remarkable effect | A | 
4 | Cl.NC1(C(=O)O)CCc2ccc(Oc3ccccc3-c3cccc(F)c3Cl)cc2C1 (stereo not shown) [Example 1-49, 2-Carboxy-7-((2′-Chloro-3′-fluoro-[1,1′-biphenyl]-2-yl)oxy)-1,2,3,4-tetrahydronaphthalene-2-aminium chloride] | ≤ 900 | more remarkable effect | A | 
5 | Cl.NC1(C(=O)O)CCc2ccc(Oc3ccccc3-c3cc(F)cc(F)c3)cc2C1 (stereo not shown) [Example 1-65, 2-Carboxy-7-((3′,5′-difluoro-[1,1′-biphenyl]-2-yl)oxy)-1,2,3,4-tetrahydronaphthalene-2-aminium chloride] | ≤ 900 |  | A | 
6 | Cl.NC1(C(=O)O)CCc2ccc(Oc3ccccc3-c3cc(F)cc(Cl)c3)cc2C1 (stereo not shown) [Example 1-66, 2-Carboxy-7-((3′-chloro-5′-fluoro-[1,1′-biphenyl]-2-yl)oxy)-1,2,3,4-tetrahydronaphthalene-2-aminium chloride] | ≤ 900 |  | A | 
7 | NC1(C(=O)O)CCc2ccc(Oc3ccccc3-c3cc(F)cc(Cl)c3Cl)cc2C1 (stereo not shown) [Example 1-67, 2-carboxy-7-((2′,3′-dichloro-5′-fluoro-[1,1′-biphenyl]-2-yl)oxy)-1,2,3,4-tetrahydronaphthalene-2-aminium chloride] | ≤ 900 |  | A | 

Further lines, results first:

Row | IC50 [1] [nM] | sustained LAT1 inhibitory effect as compared with Example 1-1 (human LAT1 [2]) | Assay Data: degree of [14C]L-leucine uptake inhibition compared with BCH (human LAT1 [3]) | LAT1 inhibitory effect, compounds singled out (in words) (human LAT1 [3]) | SMILES
8 | ≤ 900 | more remarkable effect | A |  | Cl.NC1(C(=O)O)CCc2ccc(Oc3ccccc3-c3cccc(F)c3)cc2C1 (stereo not shown) [Example 1-30, 2-carboxy-7-((3′-fluoro-[1,1′-biphenyl]-2-yl)oxy)-1,2,3,4-tetrahydronaphthalene-2-aminium chloride]
9 | ≤ 900 | more remarkable effect | A |  | Cl.NC1(C(=O)O)CCc2ccc(Oc3ccccc3-c3cccc4ccccc34)cc2C1 (stereo not shown) [Example 1-35, 2-Carboxy-7-(2-(naphthalen-1-yl)phenoxy)-1,2,3,4-tetrahydronaphthalene-2-aminium chloride]
10 | ≤ 900 | more remarkable effect | A |  | Cl.NC1(C(=O)O)CCc2ccc(Oc3ccccc3-c3cccc([N+](=O)[O-])c3)cc2C1 (stereo not shown) [Example 1-42, 2-carboxy-7-((3′-nitro-[1,1′-biphenyl]-2-yl)oxy)-1,2,3,4-tetrahydronaphthalene-2-aminium chloride]
11 | ≤ 900 | more remarkable effect | A |  | Cc1cccc(-c2ccccc2Oc2ccc3c(c2)CC(N)(C(=O)O)CC3)c1.Cl (stereo not shown) [Example 1-43, 2-carboxy-7-((3′-methyl-[1,1′-biphenyl]-2-yl)oxy)-1,2,3,4-tetrahydronaphthalene-2-aminium chloride]
12 | ≤ 900 | more remarkable effect | A |  | CN(C)c1cccc(-c2ccccc2Oc2ccc3c(c2)CC(N)(C(=O)O)CC3)c1.Cl.Cl (stereo not shown) [Example 1-50, 2-Carboxy-7-((3′-(Dimethylammonio)-[1,1′-biphenyl]-2-yl)oxy)-1,2,3,4-tetrahydronaphthalene-2-aminium chloride]
13 | ≤ 900 | more remarkable effect | A |  | CSc1cccc(-c2ccccc2Oc2ccc3c(c2)CC(N)(C(=O)O)CC3)c1.Cl (stereo not shown) [Example 1-52, 2-Carboxy-7-((3′-(methylthio)-[1,1′-biphenyl]-2-yl)oxy)-1,2,3,4-tetrahydronaphthalene-2-aminium chloride]
14 | ≤ 900 | more remarkable effect | A | particularly remarkable effects | Cl.NC1(C(=O)O)CCc2ccc(Oc3ccccc3-c3cccc(Cl)c3Cl)cc2C1 (stereo not shown) [Example 1-53, 2-carboxy-7-((2′,3′-dichloro-[1,1′-biphenyl]-2-yl)oxy)-1,2,3,4-tetrahydronaphthalene-2-aminium chloride]
15 | ≤ 900 |  | A |  | Cl.NC1(C(=O)O)CCc2ccc(Oc3ccc([N+](=O)[O-])cc3-c3cccc4ccccc34)cc2C1 (stereo not shown) [Example 1-69, 2-Carboxy-7-(2-(naphthalen-1-yl)-4-nitrophenoxy)-1,2,3,4-tetrahydronaphthalene-2-aminium chloride]
